Test results reported in patent US6525026B2, “Carbamyloxy compounds which inhibit leukocyte adhesion mediated by VLA-4” (Elan Pharmaceuticals, Inc., priority 1997, dated 2003).
Numbered stars: 1 amine (or outer) side, 2 acyl side, 3 side chain; on linkers, the order of the positions; unused ones are H or OH. Side chains are listed from the residue outwards. Peptide text beside a SMILES is read from it. * marks the point of attachment. Tos = Cc1ccc(S(=O)(=O)*)cc1; CO = O=C([*:1])[*:2]; OiPr = CC(C)O*

Tested on: not given
Assay: not given
Conditions: not given

For `Cc1ccc(S(=O)(=O)N2CCC[C@H]2C(=O)N[C@@H](Cc2ccc(OC(=O)N3CCN(CCO)CC3)cc2)C(=O)OC(C)(C)C)cc1`, which melting point is on record?
Its melting point is 158 to 160 °C.

Tested on: rats or guinea pigs
Assay: Experimental Autoimmune (or Allergic) Encephalomyelitis (EAE) model, motor impairment
Type: in vivo
Conditions: treatment from Day 8, 10 mg/kg to 200 mg/kg bid for five days, SC, PO or IP

With `Cc1ccc(S(=O)(=O)N2CCC[C@H]2C(=O)N[C@@H](Cc2ccc(OC(=O)N3CCN(C)CC3)cc2)C(=O)OC(C)(C)C)cc1` [Example 4, N-(Toluene-4-sulfonyl)-L-prolyl-L-4-(4-methylpiperazin-1-ylcarbonyloxy)phenylalanine tert-Butyl Ester] as the compound, how does the “active in EAE in vivo assay (delayed the onset of symptoms, e.g., clinical scores no greater than 2 or slowed body weight loss as compared to the control)” value read?
Its value is “active”.

For `Cc1ccc(S(=O)(=O)N2CCC[C@H]2C(=O)N[C@@H](Cc2ccc(OC(=O)N(C)C)cc2)C(=O)O)cc1` [Example 9, N-(Toluene-4-sulfonyl)-L-prolyl-L-4-(N,N-dimethylcarbamyloxy)phenylalanine] (Tos-Pro-Tyr([CO-NMe2])-OH), which “active in EAE in vivo assay (delayed the onset of symptoms, e.g., clinical scores no greater than 2 or slowed body weight loss as compared to the control)” value is on record?
Its value is “active”.

With `Cc1ccc(S(=O)(=O)N2CSC(C)(C)[C@H]2C(=O)N[C@@H](Cc2ccc(OC(=O)N(C)C)cc2)C(=O)OC(C)C)cc1` [Example 11, N-(Toluene-4-sulfonyl)-L-(5,5-dimethyl)thiaprolyl-L-4-(N,N-dimethylcarbamyloxy)phenylalanine Isopropyl Ester] as the compound, how does the “active in EAE in vivo assay (delayed the onset of symptoms, e.g., clinical scores no greater than 2 or slowed body weight loss as compared to the control)” value read?
The value was “active”.

With `Cc1ccc(S(=O)(=O)N2CSC(C)(C)[C@H]2C(=O)N[C@@H](Cc2ccc(OC(=O)N(C)C)cc2)C(=O)OC(C)(C)C)cc1` [Example 12, N-(Toluene-4-sulfonyl)-L-(5,5-dimethyl)thiaprolyl-L-4-(N,N-dimethylcarbamyloxy)phenylalanine tert-Butyl Ester] as the compound, how does the “active in EAE in vivo assay (delayed the onset of symptoms, e.g., clinical scores no greater than 2 or slowed body weight loss as compared to the control)” value read?
The value was “active”.

For `Cc1ccc(S(=O)(=O)N2CSC(C)(C)[C@H]2C(=O)N[C@@H](Cc2ccc(OC(=O)N3CCN(C)CC3)cc2)C(=O)OC(C)(C)C)cc1` [Example 16, N-(Toluene-4-sulfonyl)-L-(5,5-dimethyl)thiaprolyl-L-4-(4-methylpiperazin-1-ylcarbonyloxy)phenylalanine tert-Butyl Ester], which “active in EAE in vivo assay (delayed the onset of symptoms, e.g., clinical scores no greater than 2 or slowed body weight loss as compared to the control)” value is on record?
Its value is “active”.

Which “active in EAE in vivo assay (delayed the onset of symptoms, e.g., clinical scores no greater than 2 or slowed body weight loss as compared to the control)” value does the source give for `Cc1ccc(S(=O)(=O)N2CCS(=O)(=O)C[C@@H]2C(=O)N[C@@H](Cc2ccc(OC(=O)N(C)C)cc2)C(=O)OC(C)(C)C)cc1` [Example 51, N-(Toluene-4-sulfonyl)-L-(1,1-dioxothiamorpholin-3-carbonyl)-L-4-(N,N-dimethylcarbamyloxy)phenylalanine tert-Butyl Ester] here?
The value was “active”.

With `Cc1ccc(S(=O)(=O)N2CCS(=O)(=O)C[C@@H]2C(=O)N[C@@H](Cc2ccc(OC(=O)N(C)C)cc2)C(=O)OC(C)C)cc1` [Example 73, N-(Toluene-4-sulfonyl)-L-(1,1-dioxothiamorpholin-3-carbonyl)-L-4-(N,N-dimethylcarbamyloxy)phenylalanine Isopropyl Ester] as the compound, how does the “active in EAE in vivo assay (delayed the onset of symptoms, e.g., clinical scores no greater than 2 or slowed body weight loss as compared to the control)” value read?
Its value is “active”.

Which “active in EAE in vivo assay (delayed the onset of symptoms, e.g., clinical scores no greater than 2 or slowed body weight loss as compared to the control)” value does the source give for `Cc1ccc(S(=O)(=O)N2CS(=O)(=O)C(C)(C)[C@H]2C(=O)N[C@@H](Cc2ccc(OC(=O)N(C)C)cc2)C(=O)OC(C)C)cc1` [Example 75, N-(Toluene-4-sulfonyl)-L-(1,1-dioxo-5,5-dimethyl)thiaprolyl-L-4-(N,N-dimethylcarbamyloxy)phenylalanine Isopropyl Ester] here?
The value was “active”.

With `Cc1ccc(S(=O)(=O)N2CCC[C@H]2C(=O)N[C@@H](Cc2ccc(OC(=O)N3CCSCC3)cc2)C(=O)OC(C)(C)C)cc1` [Example 82, N-(Toluene-4-sulfonyl)-L-prolyl-L-4-(thiomorpholin-4-ylcarbonyloxy)phenylalanine tert-Butyl Ester] as the compound, how does the “active in EAE in vivo assay (delayed the onset of symptoms, e.g., clinical scores no greater than 2 or slowed body weight loss as compared to the control)” value read?
Its value is “active”.

Which “active in EAE in vivo assay (delayed the onset of symptoms, e.g., clinical scores no greater than 2 or slowed body weight loss as compared to the control)” value does the source give for `CN(C)C(=O)Oc1ccc(C[C@H](NC(=O)[C@H]2N(S(=O)(=O)c3ccc(F)cc3)CSC2(C)C)C(=O)OC(C)(C)C)cc1` [Example 95, N-(4-Fluorobenzenesulfonyl)-L-(5,5-dimethyl)thiaprolyl-L-4-(N,N-dimethylcarbamyloxy)phenylalanine tert-Butyl Ester] here?
Its value is “active”.

With `Cc1ccc(S(=O)(=O)N2CCC[C@H]2C(=O)N[C@@H](Cc2ccc(OC(=O)N(C)C)cc2)C(=O)OC(C)C)cc1` [Example 101, N-(Toluene-4-sulfonyl)-L-prolyl-L-4-(N,N-dimethylcarbamyloxy)-L-phenylalanine Isopropyl Ester] (Tos-Pro-Tyr([CO-NMe2])-OiPr) as the compound, how does the “active in EAE in vivo assay (delayed the onset of symptoms, e.g., clinical scores no greater than 2 or slowed body weight loss as compared to the control)” value read?
The value was “active”.

Which “active in EAE in vivo assay (delayed the onset of symptoms, e.g., clinical scores no greater than 2 or slowed body weight loss as compared to the control)” value does the source give for `CN(C)C(=O)Oc1ccc(C[C@H](NC(=O)[C@@H]2CCCN2S(=O)(=O)c2cnn(C)c2)C(=O)OC(C)(C)C)cc1` [Example 117, N-(Methyl-pyrazole-4-sulfonyl)-L-prolyl-L-(4-N,N-dimethylcarbamyloxy)phenylalanine tert-Butyl Ester] here?
Its value is “active”.

With `CC(C)OC(=O)[C@H](Cc1ccc(OC(=O)N(C)C)cc1)NC(=O)[C@@H]1CCCN1S(=O)(=O)c1cnn(C)c1` [Example 137, N-(Methyl-pyrazole-4-sulfonyl)-L-prolyl-L-(4-N,N-dimethylcarbamyloxy)-phenylalanine Isopropyl Ester] as the compound, how does the “active in EAE in vivo assay (delayed the onset of symptoms, e.g., clinical scores no greater than 2 or slowed body weight loss as compared to the control)” value read?
The value was “active”.
